Measurements: the supplement of paper PMC10627819

Assays:
[1] = tested on: B. subtilis 168; experiment: fitness (endpoint OD595 vs no drug) (fraction); higher = more growth
Summary of the method: (§1)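 Cultures at OD595 0.01 were dispensed into 384-well plates in TSB, LB Lennox or CY and incubated at 37 °C. Every 30 min for 14 h, OD595 was read and corrected by the first reading. Fitness is the optical density at entry into stationary phase relative to the robust mean of no-drug control wells, capped at 1.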

[2] = tested on: S. aureus DSM 20231; experiment: as above
Summary of the method: as §1

[3] = tested on: B. subtilis 168; experiment: Bliss interaction score (quartile over a dose matrix) (fitness difference); higher = more antagonism (negative = synergy)
Summary of the method: (§2)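 The Bliss score was calculated by subtracting the expected fitness, the product of single-drug values, from the observed fitness. OD595 at entry into stationary phase, over the plate's robust no-drug mean and capped at 1, served as the fitness readout. Single-drug values were inferred from combination data, and scores are summarised by quartiles across technical, biological and donor/recipient replicates.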

[4] = tested on: S. aureus DSM 20231; experiment: as above
Summary of the method: as §2

[5] = tested on: S. aureus Newman; experiment: as above
Summary of the method: as §2

[6] = tested on: S. pneumoniae D39V; experiment: as above
Summary of the method: as §2

[7] = tested on: S. aureus Newman; experiment: fitness (endpoint OD595 vs no drug) (fraction); higher = more growth
Summary of the method: as §1

[8] = tested on: S. pneumoniae D39V; experiment: as above
Summary of the method: as §1
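Throughout, for Bliss interaction score (quartile over a dose matrix): first quartile when negative (synergy) and third quartile when positive (antagonism).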

CN[C@@H]1[C@H](O)[C@H](NC)[C@H]2O[C@@]3(O)C(=O)C[C@@H](C)O[C@H]3O[C@@H]2[C@H]1O [Spectinomycin] + COc1cc(Cc2cnc(N)nc2N)cc(OC)c1OC [Trimethoprim]
fitness, one replicate
Settings	first compound 2 µg/mL	first compound 4 µg/mL	first compound 8 µg/mL	first compound 32 µg/mL	first compound 64 µg/mL
[1], partner 0.1 µg/mL	0.871	0.821	0.686	–	–
[1], partner 0.125 µg/mL	0.707	0.606	0.414	–	–
[1], partner 0.2 µg/mL	0.781	0.762	0.386	–	–
[1], partner 0.4 µg/mL	0.473	0.556	0.223	–	–
[1], partner 1 µg/mL	0.508	0.338	0.167	–	–
[1], partner 2 µg/mL	0.408	0.187	0.0702	–	–
[2], partner 0.125 µg/mL	–	0.808	0.822	0.629	0.026
[2], partner 0.25 µg/mL	–	–	–	0.573	0.0208
[2], partner 0.5 µg/mL	–	–	–	0.299	0.0374

fitness
Settings	first compound 4 µg/mL	first compound 8 µg/mL	first compound 16 µg/mL
[1], partner 0.25 µg/mL	–	0.482	–
[1], partner 0.5 µg/mL	0.496	0.308	–
[2], partner 0.125 µg/mL	–	–	0.654
[2], partner 0.25 µg/mL	0.598	0.593	0.649
[2], partner 1 µg/mL	0.0368	0.0298	0.0188

Settings	Bliss interaction score
[3]	-0.0925
[4]	0.0932
[5]	0.0863
[6]	-0.161

CN[C@@H]1[C@H](O[C@H]2[C@H](O[C@H]3[C@H](O)[C@@H](O)[C@H](N=C(N)N)[C@@H](O)[C@@H]3N=C(N)N)O[C@@H](C)[C@]2(O)C=O)O[C@@H](CO)[C@H](O)[C@H]1O [Streptomycin] + Cn1nnc(-c2ccc(-c3ccc(N4C[C@H](CO)OC4=O)cc3F)cn2)n1 [Tedizolid]
fitness
Settings	partner 0.03125 µg/mL	partner 0.0625 µg/mL	partner 0.125 µg/mL	partner 0.25 µg/mL	partner 0.5 µg/mL
[7], first compound 1 µg/mL	–	0.928	0.767	–	–
[8], first compound 2 µg/mL	0.896	0.952	0.811	–	–
[8], first compound 4 µg/mL	0.898	0.886	0.788	0.739	0.336
[8], first compound 8 µg/mL	0.893	0.912	0.829	0.732	0.353

fitness, [8], one replicate
Settings	partner 0.125 µg/mL	partner 0.25 µg/mL	partner 0.5 µg/mL
first compound 2 µg/mL	–	0.748	0.373
first compound 16 µg/mL	0.695	0.531	0.236

Settings	Bliss interaction score
[3]	0.189
[4]	0.155
[5]	-0.188
[6]	-0.057

CC(=O)NC[C@H]1CN(c2ccc(N3CCOCC3)c(F)c2)C(=O)O1 [Linezolid] + CN[C@@H]1[C@H](O)[C@H](NC)[C@H]2O[C@@]3(O)C(=O)C[C@@H](C)O[C@H]3O[C@@H]2[C@H]1O [Spectinomycin]
one replicate
Settings	fitness
[1], first compound 0.0625 µg/mL, partner 2 µg/mL	0.893
[1], first compound 0.0625 µg/mL, partner 4 µg/mL	0.814
[1], first compound 0.0625 µg/mL, partner 8 µg/mL	0.654
[2], first compound 0.125 µg/mL, partner 32 µg/mL	0.472
[2], first compound 0.125 µg/mL, partner 64 µg/mL	0.0532
[2], first compound 0.25 µg/mL, partner 32 µg/mL	0.341
[2], first compound 0.25 µg/mL, partner 64 µg/mL	0.037
[2], first compound 0.5 µg/mL, partner 32 µg/mL	0.135
[2], first compound 0.5 µg/mL, partner 64 µg/mL	0.0476
[2], first compound 1 µg/mL, partner 4 µg/mL	0.0244
[2], first compound 1 µg/mL, partner 8 µg/mL	0.0183
[2], first compound 1 µg/mL, partner 16 µg/mL	0.009
[8], first compound 0.2 µg/mL, partner 4 µg/mL	0.8
[8], first compound 0.2 µg/mL, partner 8 µg/mL	0.769
[8], first compound 0.4 µg/mL, partner 4 µg/mL	0.633
[8], first compound 0.4 µg/mL, partner 8 µg/mL	0.659
[8], first compound 0.8 µg/mL, partner 4 µg/mL	0.271
[8], first compound 0.8 µg/mL, partner 8 µg/mL	0.302

fitness
Settings	partner 2 µg/mL	partner 4 µg/mL	partner 8 µg/mL	partner 16 µg/mL
[1], first compound 0.125 µg/mL	0.507	0.426	0.336	–
[1], first compound 0.25 µg/mL	–	0.0516	0.0689	–
[1], first compound 0.5 µg/mL	0.0491	0.039	0.0208	–
[2], first compound 0.125 µg/mL	–	0.857	0.838	0.702
[2], first compound 0.25 µg/mL	–	0.547	0.458	0.419
[2], first compound 0.5 µg/mL	–	0.156	0.119	0.175
[8], first compound 0.105 µg/mL	–	0.767	0.73	0.694
[8], first compound 0.21 µg/mL	–	0.663	0.662	0.582
[8], first compound 0.42 µg/mL	–	0.454	0.343	0.284

Settings	Bliss interaction score
[3]	-0.0551
[4]	-0.0609
[5]	-0.12
[6]	-0.134

CN[C@@H]1[C@H](O)[C@H](NC)[C@H]2O[C@@]3(O)C(=O)C[C@@H](C)O[C@H]3O[C@@H]2[C@H]1O [Spectinomycin] + CN(C)c1cc(NC(=O)CNC(C)(C)C)c(O)c2c1C[C@H]1C[C@H]3[C@H](N(C)C)C(O)=C(C(N)=O)C(=O)[C@@]3(O)C(O)=C1C2=O [Tigecycline]
fitness
Settings	first compound 2 µg/mL	first compound 4 µg/mL	first compound 8 µg/mL	first compound 16 µg/mL
[1], partner 0.039 µg/mL	0.976	≥ 1	0.978	–
[1], partner 0.078 µg/mL	0.959	0.968	0.927	–
[1], partner 0.156 µg/mL	1	≥ 1	0.889	–
[7], partner 0.039 µg/mL	–	0.912	0.918	0.904
[7], partner 0.078 µg/mL	–	0.954	0.928	0.908
[7], partner 0.156 µg/mL	–	0.938	0.961	0.929
[8], partner 0.65 µg/mL	–	0.951	0.896	0.747
[8], partner 1.3 µg/mL	–	0.981	0.905	0.788
[8], partner 2.6 µg/mL	–	0.941	0.896	0.761

fitness, one replicate
Settings	partner 0.039 µg/mL	partner 0.078 µg/mL	partner 0.125 µg/mL	partner 0.156 µg/mL	partner 0.25 µg/mL	partner 0.5 µg/mL
[1], first compound 2 µg/mL	–	–	≥ 1	–	0.994	0.937
[1], first compound 4 µg/mL	–	–	≥ 1	–	0.944	≥ 1
[1], first compound 8 µg/mL	–	–	0.941	–	0.931	≥ 1
[7], first compound 32 µg/mL	0.592	0.585	–	0.603	–	–
[7], first compound 64 µg/mL	0.105	0.0894	–	0.1	–	–

Settings	Bliss interaction score
[3]	0.043
[4]	-0.0602
[5]	0.0622
[6]	0.0451
